Data published in patent publication US8226944B2, “Composition for treating virus infection disease comprising Jab1” (priority 2004, dated 2012).
Square brackets hold non-standard residues; d marks the D form. Peptide text beside a SMILES is read from it. Nle = CCCC[C@H](N)C(=O)O

Columns and labels:
[1] = tested on: WNV-Cp; experiment: Western blotting of WNV-Cp protein levels in transfected 293T cells; format: cell-based
Method: 293T cells were plated onto 60-mm plates at a density of 3×10^5 cells, cultured, and transfected with pcDAN3-HA/WNV-Cp alone, and pcDAN3-HA/WNV-Cp and pCMV-tag2B-Jab1 together using an Effectene transfection reagent (Qiagen). In the case of the co-transfection, to equalize the levels of expressed DNA, 12 hrs after transfection, cells were divided into two plates by pipetting. 20 hrs after transfection, the cells were treated for 4 hrs with 20 μM/ml of the proteasome inhibitor LLnL (N-acetyl-L-luecinyl-norleucinal, Sigma). Then, the cells were washed with 1×PBS and collected. Samples of 50 μg protein were loaded onto a SDS-PAGE gel and analyzed by Western blotting using an anti-HA antibody (Santa Cruz) for the detection of WNV-Cp expression and an anti-Flag M2 antibody (Sigma) for the detection of Jab1 expression. Actin was used as a loading control.

[2] = tested on: SH-SY5Y cells expressing WNV-Cp; experiment: Annexin V-PE staining / FACS apoptosis rate in cells transfected with WNV-Cp gene; format: cell-based, human; details: 200 nM inhibitor added after 6 hrs, measured after 24 hrs, untreated WNV-Cp cells 69.6%
Description: Human neuroblastoma SH-SY5Y cells were transfected with a WNV-Cp gene. To determine an apoptosis rate in cells expressing the capsid protein of WNV, the cells were stained with annexin V-PE and subjected to FACS analysis (BioRAD, Win BRYTE). As a result, the cells were fractionated into four fractions: A, B, C and D. The A fraction indicates a cell population that was not injected with the WNV-Cp gene and stained with annexin V-PE.
Separately, SH-SY5Y cells were transfected with a WNV-Cp gene. After 6 hrs, the cells were treated with 200 nM of a PI3K inhibitor, wortmanin (Sigma), and 5 μM and 50 μM of an Akt inhibitor, calbiochem (CN Biosciences). After 24 hrs, the cells were stained with annexin V-PE that is capable of detecting a step of apoptosis and subjected to FACS analysis (BioRAD, WinBryte) for measuring an apoptosis rate. […] The transfected cells were analyzed on a FL3 channel (green fluorescence) and annexin V-PE binding was analyzed on a FL2 channel. An apoptosis rate in capsid-expressing cells was calculated according to Reaction 1, below. Cells transfected with a pEGFP-N1 plasmid were used as a negative control, and cells transfected with a C2-Cp plasmid and not treated with the inhibitor were used as a positive control. [Annexin V-PE-positive cells/(all cells expressing C2−Cp)]×100 [Reaction 1]

[3] = tested on: caspase-3 and caspase-9; experiment: Caspase activity assay (colorimetric) in transfected 293T cells; format: cell-based, human; details: 293T cells co-expressing WNV-Cp and Jab1 versus WNV-Cp alone, 24 hrs after transfection
Method: 293T cells were plated onto 60-mm plates at a density of 3×10^5 cells, cultured, and transfected with pcDNA3-HA, pcDNA3-HA/Cp, pCMV-tag2B-Jab1, both pcDNA3-HA/Cp and pCMV-tag2B-Jab1, and pcDNA3-Bax, respectively. After 24 hrs, the cells were washed with 1×PBS twice, transferred to 1.5-ml tubes, and lysed with 20 μl of buffer C (25% glycerol, 0.42 M NaCl, 1.5 M MgCl2, 0.2 mM EDTA, 20 mM HEPES, 1 mM DTT, 0.5 mM PMSF, pH7.9). After being incubated for 10 min on ice, the lysed cells were centrifuged. The total protein concentration in each supernatant was measured, and samples of zero to 300 μg of proteins were placed into a 96-well plate. To the 96-well plate, 50 μl of 2× reaction buffer and 5 μl of 4 mM DNA-conjugated substrate, provided in a caspase colorimetric substrate set II plus kit (Biovision), were added. After a 1-hr incubation at 37° C., the activity of caspase-3 and caspase-9 was measured at 410 nm using a microtiter plate reader. The results are given in the A panel of FIG. 8. In cells expressing WNV-Cp, the activity of capase-3 and caspase-9 was similar to that in cells expressing Bax, a member of the pro-apoptotic Bcl-2 family. […] The expression of the proteins used in this caspase activity assay was detected by Western blotting, and the results are given in the B panel of FIG. 8.

[4] = tested on: p53; experiment: Western blotting of endogenous p53 expression in transfected U2OS cells; format: cell-based, human; details: U2OS cells transfected with 1, 3 and 5 μg Flag construct, 48 hrs
Method: U2OS cells were transfected with Flag/mdm2 (control) and Flag/Jab1 with various concentrations of 1, 3 and 5 μg using a Lipofectamin/plus reagent (Invitrogen). After 48 hrs, cell lysates were collected, and total protein concentrations were measured by a BSA (PIERCE) method. Samples of 100 μg/ml protein were separated on a 10% SDS-PAGE gel and transferred to a nitrocellulose membrane. The blot was blocked with 5% skim milk for 30 min, and treated with a rabbit anti-HA antibody (Santa Cruz) and a mouse anti-Flag antibody (Sigma) to examine expression levels of p53 according to increased expression of mdm2 and Jab1.

[5] = target: T1, WNV-Cp (West Nile virus, UniProt Q9Q6P4); experiment: Immunoprecipitation of Jab1 with WNV-Cp in cotransfected 293T cells; format: binding; details: 293T cells cotransfected with Flag-Jab1 and HA-WNV-Cp, IP with anti-HA antibody
T1 construct: capsid (Cp) protein of West Nile virus (WNV); expressed in transfected cells; host or cells: 293T
T1 sequence (Q9Q6P4 2-105 limits assumed): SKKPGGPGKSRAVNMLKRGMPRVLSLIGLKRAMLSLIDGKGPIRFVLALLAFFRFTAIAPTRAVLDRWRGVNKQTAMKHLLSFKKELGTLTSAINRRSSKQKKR
Method: Separately, immunoprecipitation (IP) was performed to confirm the interaction between WNV-Cp and Jab1. 293T cells were cotransfected with Flag-Jab1 and HA-WNV-Cp plasmids, and the whole cell lysates were immunoprecipitated with an anti-HA mouse antibody. As a control, IP was carried out with an anti-Myc antibody. Immunoprecipited proteins were run on a 12% SDS-PAGE gel, transferred to a nitrocellulose membrane, and detected with an anti-Flag mouse antibody to visualize immunoprecipitated Jab1 along with WNV-Cp (FIG. 7).

[6] = tested on: WNV-Cp; experiment: Immunofluorescence (confocal) localisation of WNV-Cp in cotransfected 293T, U2OS and HeLa cells; format: cell-based, West Nile virus; details: U2OS and HeLa cells cotransfected with WNV-Cp and Jab1, 24 hrs
Description: To evaluate the effect of Jab1, identified to interact with WNV-Cp, on the intracellular location of WNV-cp, 293T, U2OS and HeLa cells were cotransfected with the WNV-Cp protein and Jab1. 293T, U2OS and HeLa cells were cotransfected with HA-tagged pcDNA-HA/WNV-Cp and Flag-tagged pCMV Tag2B-Jab1. After 24 hrs, the cells were stained using an anti-HA antibody (green) and an anti-Flag antibody (red) and observed under a confocal microscope.

Sequence of p53 (P04637 whole entry): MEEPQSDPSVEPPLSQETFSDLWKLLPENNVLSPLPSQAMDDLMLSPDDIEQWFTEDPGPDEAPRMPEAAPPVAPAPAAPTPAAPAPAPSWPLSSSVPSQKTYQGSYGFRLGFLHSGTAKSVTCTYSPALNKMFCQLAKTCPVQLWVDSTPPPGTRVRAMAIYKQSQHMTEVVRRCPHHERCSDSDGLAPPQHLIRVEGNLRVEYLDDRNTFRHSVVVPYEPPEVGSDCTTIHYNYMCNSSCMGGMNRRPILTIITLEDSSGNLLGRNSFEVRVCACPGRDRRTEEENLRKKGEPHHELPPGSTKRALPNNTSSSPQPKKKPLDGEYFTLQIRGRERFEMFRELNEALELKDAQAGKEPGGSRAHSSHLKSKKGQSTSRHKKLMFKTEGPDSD

CCCC[C@@H](C=O)NC(=O)[C@H](CC(C)C)NC(=O)[C@H](CC(C)C)NC(C)=O [LLnL, N-acetyl-L-luecinyl-norleucinal, reference compound] (Ac-Leu-Leu-[Nle]-aldehyde)
protein levels of WNV-Cp ([1]; 293T cells cotransfected with WNV-Cp and Jab1, treated for 4 hrs with 20 μM/ml LLnL): increased

COC[C@H]1OC(=O)c2coc3c2[C@@]1(C)C1=C(C3=O)[C@@H]2CCC(=O)[C@@]2(C)C[C@H]1OC(C)=O [wortmanin]
apoptosis rate [2]: 22.8%

Jab1: Jun-activation binding protein 1, expressed in cells from plasmid pCMV-tag2B-Jab1 (Flag-tagged); amino acid sequence SEQ ID No. 2
caspase activity (caspase-3 and caspase-9) [3]: remarkably reduced | protein levels of WNV-Cp ([1]; 293T cells, co-expression with Jab1 compared to single expression of WNV-Cp): large decrease | expression of p53 [4]: remarkably decreased | interaction with WNV-Cp (co-immunoprecipitation) [5]: co-immunoprecipitated with WNV-Cp | intracellular location of WNV-Cp [6]: appeared in the cytoplasm
